Data reported in patent US20250074897A1, “PYRIDAZINONES AS PARP7 INHIBITORS” (Ribon Therapeutics, Inc., priority 2019, published 2025).

Target: T1, PARP7 (TIPARP) (Homo sapiens, UniProt Q7Z3E1)
T1 sequence (Q7Z3E1 1-657): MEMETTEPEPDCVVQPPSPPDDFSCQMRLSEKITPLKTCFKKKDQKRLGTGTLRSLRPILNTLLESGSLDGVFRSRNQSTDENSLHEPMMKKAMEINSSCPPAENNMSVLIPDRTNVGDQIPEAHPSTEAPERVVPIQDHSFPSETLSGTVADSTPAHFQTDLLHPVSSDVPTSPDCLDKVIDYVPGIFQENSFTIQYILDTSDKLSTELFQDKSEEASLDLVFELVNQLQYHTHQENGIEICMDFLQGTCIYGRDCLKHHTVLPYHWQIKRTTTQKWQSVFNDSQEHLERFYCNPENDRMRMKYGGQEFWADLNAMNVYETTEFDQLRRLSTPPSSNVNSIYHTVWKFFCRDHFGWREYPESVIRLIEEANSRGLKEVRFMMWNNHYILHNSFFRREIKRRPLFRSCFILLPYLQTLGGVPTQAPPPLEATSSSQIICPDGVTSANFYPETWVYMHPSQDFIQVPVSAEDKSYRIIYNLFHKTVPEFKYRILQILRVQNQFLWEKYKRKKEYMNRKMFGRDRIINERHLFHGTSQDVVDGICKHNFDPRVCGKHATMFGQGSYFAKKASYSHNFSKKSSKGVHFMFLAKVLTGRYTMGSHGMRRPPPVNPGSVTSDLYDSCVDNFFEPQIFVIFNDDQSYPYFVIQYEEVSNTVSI
Test: Enzymatic assay for inhibition of PARP7: TR-FRET displacement of biotinylated Probe A from the TIPARP active site
Assay type: binding
Conditions: 6 nM TIPARP, 2 nM Probe A, 25° C., 30 min incubation with test compound
Description: Enzymatic Assay for Inhibition of PARP7
Displacement of Probe A, a biotinylated probe binding to the TIPARP active site, was measured using a time-resolved fluorescence energy transfer (TR-FRET) assay. 20 nL of a dose response curve of each test compound was spotted in black 384-well polystyrene proxiplates (Perkin Elmer) using a Mosquito (TTP Labtech). Reactions were performed in a 8 μL volume by adding 6 μL of TIPARP and Probe A in assay buffer (20 mM HEPES pH=8, 100 mM NaCl, 0.1% bovine serum albumin, 2 mM DTT and 0.002% Tween20), incubating with test compound at 25° C. for 30 min, then adding 2 μL of ULight-anti 6xHis and LANCE Eu-W1024 labeled streptavidin (Perkin Elmer). The final concentrations of TIPARP and Probe A were 6 nM and 2 nM, respectively. The final concentration of ULight-anti 6xHis and LANCE Eu-W1024 labeled streptavidin were 4 nM and 0.25 nM, respectively. Reactions were incubated at 25° C. for an additional 30 min, then read on an Envision platereader equipped with a LANCE/DELFIA top mirror (Perkin Elmer) using excitation of 320 nm and emission of 615 nm and […] with a 90 μs delay. The ratio of the 665/615 nm emission were calculated for each well to determine the amount of complex of TIPARP and Probe A in each well. Control wells containing a negative control of 0.25% DMSO vehicle or a positive control of 100 μM 5-(5-(piperidin-4-yloxy)isoindolin-2-yl)-4-(trifluoromethyl)pyridazin-3(2H)-one were used to calculate the % inhibition as described below:
where TRFempd is the TR-FRET ratio from the compound treated well, TRFmin is the TR-FRET ratio from the 5-(5-(piperidin-4-yloxy)isoindolin-2-yl)-4-(trifluoromethyl)pyridazin-3(2H)-one-treated positive control well and TRFmax is the TR-FRET ratio from the DMSO-treated negative control well.
The % inhibition values were plotted as a function of compound concentration and the following 4-parameter fit was applied to derive the IC50 values:
where top and bottom are normally allowed to float, but may be fixed at 100 or 0 respectively in a 3-parameter fit. The Hill Coefficient is normally allowed to float but may also be fixed at 1 in a 3-parameter fit. Y is the % inhibition and X is the compound concentration.

IC50, < 0.1 µM:
C[C@@H](COC[C@@H](O)C(=O)N1CCN(c2ncc(C(F)(F)F)cn2)CC1)Nc1cn[nH]c(=O)c1C(F)(F)F (single isomer, unassigned) [Example 1A]
C[C@@H](COC[C@H](O)C(=O)N1CCN(c2ncc(C(F)(F)F)cn2)CC1)Nc1cn[nH]c(=O)c1C(F)(F)F (single isomer, unassigned) [Example 1B]
C[C@@H](COC[C@@H](O)C(=O)N1CCN(c2ncc(Cl)cn2)CC1)Nc1cn[nH]c(=O)c1C(F)(F)F (single isomer, unassigned) [Example 6A]
C[C@@H](COC[C@H](O)C(=O)N1CCN(c2ncc(Cl)cn2)CC1)Nc1cn[nH]c(=O)c1C(F)(F)F (single isomer, unassigned) [Example 6B]
C[C@@H](COC[C@@H](O)C(=O)N1CCN(c2ncc(C(F)(F)F)cn2)CC1)Oc1cn[nH]c(=O)c1C(F)(F)F (single isomer, unassigned) [Example 7A]
C[C@@H](COC[C@H](O)C(=O)N1CCN(c2ncc(C(F)(F)F)cn2)CC1)Oc1cn[nH]c(=O)c1C(F)(F)F (single isomer, unassigned) [Example 7B]
C[C@@H](COC[C@@H](O)C(=O)N1CCN(c2ncc(C(F)(F)F)cn2)CC1)Oc1cn[nH]c(=O)c1Br (single isomer, unassigned) [Example 12A]
C[C@@H](COC[C@H](O)C(=O)N1CCN(c2ncc(C(F)(F)F)cn2)CC1)Oc1cn[nH]c(=O)c1Br (single isomer, unassigned) [Example 12B]
[2H]C1([2H])N(C(=O)[C@H](O)COC[C@H](C)Nc2cn[nH]c(=O)c2C(F)(F)F)C([2H])([2H])C([2H])([2H])N(c2ncc(C(F)(F)F)cn2)C1([2H])[2H] (single isomer, unassigned) [Example 13A]
[2H]C1([2H])N(C(=O)[C@@H](O)COC[C@H](C)Nc2cn[nH]c(=O)c2C(F)(F)F)C([2H])([2H])C([2H])([2H])N(c2ncc(C(F)(F)F)cn2)C1([2H])[2H] (single isomer, unassigned) [Example 13B]
O=C([C@H](O)COC[C@@H]1c2ccccc2CN1c1cn[nH]c(=O)c1C(F)(F)F)N1CCN(c2ncc(C(F)(F)F)cn2)CC1 (single isomer, unassigned) [Example 17A]
O=C([C@H](O)COC[C@H]1c2ccccc2CN1c1cn[nH]c(=O)c1C(F)(F)F)N1CCN(c2ncc(C(F)(F)F)cn2)CC1 (single isomer, unassigned) [Example 17B]
O=C([C@@H](O)COC[C@@H]1c2ccccc2CN1c1cn[nH]c(=O)c1C(F)(F)F)N1CCN(c2ncc(C(F)(F)F)cn2)CC1 (single isomer, unassigned) [Example 17C]
O=C([C@@H](O)COC[C@H]1c2ccccc2CN1c1cn[nH]c(=O)c1C(F)(F)F)N1CCN(c2ncc(C(F)(F)F)cn2)CC1 (single isomer, unassigned) [Example 17D]
C[C@@H](COC[C@@H](O)C(=O)N1CCN(c2cnc(C(F)(F)F)cn2)CC1)Nc1cn[nH]c(=O)c1C(F)(F)F [Example 2A, 5-(((S)-1-((R)-2-hydroxy-3-oxo-3-(4-(5-(trifluoromethyl)pyrazin-2-yl)piperazin-1-yl)propoxy)propan-2-yl)amino)-4-(trifluoromethyl)pyridazin-3(2H)-one]
C[C@@H](COC[C@H](O)C(=O)N1CCN(c2cnc(C(F)(F)F)cn2)CC1)Nc1cn[nH]c(=O)c1C(F)(F)F [Example 2B, 5-(((S)-1-((S)-2-hydroxy-3-oxo-3-(4-(5-(trifluoromethyl)pyrazin-2-yl)piperazin-1-yl)propoxy)propan-2-yl)amino)-4-(trifluoromethyl)pyridazin-3(2H)-one]
C[C@@H](COC[C@@H](O)C(=O)N1CCN(c2ncc(C(F)(F)F)s2)CC1)Nc1cn[nH]c(=O)c1C(F)(F)F [Example 3A, 5-((S)-1-((R)-2-hydroxy-3-oxo-3-(4-(5-(trifluoromethyl)thiazol-2-yl)piperazin-1-yl)propoxy)propan-2-ylamino)-4-(trifluoromethyl)pyridazin-3(2H)-one]
C[C@@H](COC[C@H](O)C(=O)N1CCN(c2ncc(C(F)(F)F)s2)CC1)Nc1cn[nH]c(=O)c1C(F)(F)F [Example 3B, 5-((S)-1-((S)-2-hydroxy-3-oxo-3-(4-(5-(trifluoromethyl)thiazol-2-yl)piperazin-1-yl)propoxy)propan-2-ylamino)-4-(trifluoromethyl)pyridazin-3(2H)-one]
C[C@@H](COC[C@@H](O)C(=O)N1CCN(c2ncc(C(F)F)cn2)CC1)Nc1cn[nH]c(=O)c1C(F)(F)F [Example 4A, 5-(((S)-1-((R)-3-(4-(5-(difluoromethyl)pyrimidin-2-yl)piperazin-1-yl)-2-hydroxy-3-oxopropoxy)propan-2-yl)amino)-4-(trifluoromethyl)pyridazin-3(2H)-one]
C[C@@H](COC[C@H](O)C(=O)N1CCN(c2ncc(C(F)F)cn2)CC1)Nc1cn[nH]c(=O)c1C(F)(F)F [Example 4B, 5-(((S)-1-((S)-3-(4-(5-(difluoromethyl)pyrimidin-2-yl)piperazin-1-yl)-2-hydroxy-3-oxopropoxy)propan-2-yl)amino)-4-(trifluoromethyl)pyridazin-3(2H)-one]
C[C@@H](COCC(C)(O)C(=O)N1CCN(c2ncc(C(F)(F)F)cn2)CC1)Nc1cn[nH]c(=O)c1C(F)(F)F (stereo partly drawn) [Example 5, 5-(((2S)-1-(2-hydroxy-2-methyl-3-oxo-3-(4-(5-(trifluoromethyl)pyrimidin-2-yl)piperazin-1-yl)propoxy)propan-2-yl)amino)-4-(trifluoromethyl)pyridazin-3(2H)-one]
C[C@@H](COC[C@@H](O)C(=O)N1CCN(c2cnc(C(F)(F)F)cn2)CC1)Oc1cn[nH]c(=O)c1C(F)(F)F [Example 8A, 5-(((S)-1-((R)-2-hydroxy-3-oxo-3-(4-(5-(trifluoromethyl)pyrazin-2-yl)piperazin-1-yl)propoxy)propan-2-yl)oxy)-4-(trifluoromethyl)pyridazin-3(2H)-one]
C[C@@H](COC[C@H](O)C(=O)N1CCN(c2cnc(C(F)(F)F)cn2)CC1)Oc1cn[nH]c(=O)c1C(F)(F)F [Example 8B, 5-(((S)-1-((S)-2-hydroxy-3-oxo-3-(4-(5-(trifluoromethyl)pyrazin-2-yl)piperazin-1-yl)propoxy)propan-2-yl)oxy)-4-(trifluoromethyl)pyridazin-3(2H)-one]
C[C@@H](COC[C@@H](O)C(=O)N1CCN(c2ncc(Cl)cn2)CC1)Oc1cn[nH]c(=O)c1C(F)(F)F [Example 9A, 5-(((S)-1-((R)-3-(4-(5-chloropyrimidin-2-yl)piperazin-1-yl)-2-hydroxy-3-oxopropoxy)propan-2-yl)oxy)-4-(trifluoromethyl)pyridazin-3(2H)-one]
C[C@@H](COC[C@@H](O)C(=O)N1CCN(c2ccc(C#N)cn2)CC1)Oc1cn[nH]c(=O)c1C(F)(F)F [Example 10A, 6-(4-((R)-2-hydroxy-3-((S)-2-((6-oxo-5-(trifluoromethyl)-1,6-dihydropyridazin-4-yl)oxy)propoxy)propanoyl)piperazin-1-yl)nicotinonitrile]
C[C@@H](COC[C@@H](O)C(=O)N1CCN(c2ncc(C(F)F)cn2)CC1)Oc1cn[nH]c(=O)c1C(F)(F)F [Example 11A, 5-(((S)-1-((R)-3-(4-(5-(difluoromethyl)pyrimidin-2-yl)piperazin-1-yl)-2-hydroxy-3-oxopropoxy)propan-2-yl)oxy)-4-(trifluoromethyl)pyridazin-3(2H)-one]
